Data: US9670221B2, “Furopyridines as bromodomain inhibitors” (GlaxoSmithKline Intellectual Property (No.2) Limited, priority 2013, dated 2017)
Where a name gives a salt, the structure may show the parent alone.

Biological target: T1, BRD4 BD1 (Homo sapiens, UniProt O60885, Y390A)
T1 construct: BRD4 (1-477) (Y97A) and (Y390A); made in house; host or cells: E. coli (pET15b vector)
Experiment: TR-FRET binding assay, BRD4 BD1 (mutant protein)
Details: BRD4 (1-477) mutant, 10 nM protein, read-out: pIC50 in the BRD4 BD1 assay (converted)
Description: Time Resolved Fluorescence Resonance Energy Transfer (TR-FRET) Assay
Binding was assessed using a time resolved fluorescent resonance energy transfer binding assay. This utilises a 6 His purification tag at the N-terminal of the proteins as an epitope for an anti-6 His antibody labeled with Europium chelate (PerkinElmer AD0111) allowing binding of the Europium to the proteins which acts as the donor fluorophore. A small molecule, high affinity binder of the bromodomains BRD2, BRD3, BRD4 and BRDT has been labeled with Alexa Fluor647 (Reference Compound X) and this acts as the acceptor in the FRET pair.
Assay Principle: In the absence of a competing compound, excitation of the Europium causes the donor to emit at λ618 nm which excites the Alexa labelled bromodomain binding compound leading to an increased energy transfer that is measurable at λ647 […]. In the presence of a sufficient concentration of a compound that can bind these proteins, the interaction is disrupted leading to a quantifiable drop in fluorescent resonance energy transfer.
The binding of the compounds of formula (I) to Bromodomains BRD2, BRD3, BRD4 and BRDT was assessed using mutated proteins to detect differential binding to either Binding Domain 1 (BD1) or Binding Domain 2 (BD2) on the bromodomain. These single residue mutations in the acetyl lysine binding pocket greatly lower the affinity of the fluoroligand (Reference Compound X) for the mutated domain (>1000 fold selective for the non-mutated domain). Therefore in the final assay conditions, binding of the fluoroligand to the mutated domain cannot be detected and subsequently the assay is suitable to determine the binding of compounds to the single non-mutated bromodomain.
Protein production: Recombinant Human Bromodomains [(BRD2 (1-473) (Y113A) and (Y386A), BRD3 (1-435) (Y73A) and (Y348A) BRD4 (1-477) (Y97A) and (Y390A) and BRDT (1-397) (Y66A) and (Y309A)] were expressed in E. coli cells (in pET15b vector for BRD2/3/4 and in pET28a vector for BRDT) with a 6-His tag at the N-terminal. The His-tagged Bromodomain pellet was resuspended in 50 mM HEPES (pH7.5), 300 mM NaCl, 10 mM imidazole & 1 μl/mL protease inhibitor cocktail and extracted from the E. coli cells using sonication and purified using a nickel sepharose high performance column, the proteins were washed and then eluted with a linear gradient of 0-500 mM imidazole with buffer 50 mM HEPES (pH7.5), 150 mM NaCl, 500 mM imidazole, over 20 column volumes. Final purification was completed by Superdex 200 prep grade size exclusion column. Purified protein was stored at −80° C. in 20 mM HEPES pH 7.5 and 100 mM NaCl. Protein identity was confirmed by peptide mass fingerprinting and predicted molecular weight confirmed by mass spectrometry.
Protocol for Bromodomain BRD2, 3, 4 and T, BD1^+BD2 mutant assays: All assay components were dissolved in buffer composition of 50 mM HEPES pH7.4, 50 mM NaCl, 5% Glycerol, 1 mM DTT and 1 mM CHAPS. The final concentration of bromodomain proteins were 10 nM and the Alexa Fluor647 ligand was at Kd. These components were premixed and 5 μl of this reaction mixture was added to all wells containing 50 nl of various concentrations of test compound or DMSO vehicle (0.5% DMSO final) in Greiner 384 well black low volume microtitre plates and incubated in dark for 30 minutes at room temperature. 5 μl of detection mixture containing 1.5 nM final concentration anti-6His Europium chelate was added to all wells and a further dark incubation of at least 30 minutes was performed. Plates were then read on the Envision platereader, (λex=317 nm, donor λem=615 nm; acceptor λem=665 nm; Dichroic LANCE dual). Time resolved fluorescent intensity measurements were made at both emission wavelengths and the ratio of acceptor/donor was calculated and used for data analysis. All data was normalized to the mean of 16 high (inhibitor control—Example 11 of WO 2011/054846A1) and 16 low (DMSO) control wells on each plate. […]

IC50 [nM] | SMILES
≤ 100 | CC(c1cc2c(=O)n(C)cc(-c3ccnc(OCC4CCOCC4)c3)c2o1)N1CCN(S(C)(=O)=O)CC1 (single isomer, unassigned) [Example 21a, 5-methyl-2-(1-(4-(methylsulfonyl)piperazin-1-yl)ethyl)-7-(2-((tetrahydro-2H-pyran-4-yl)methoxy)pyridin-4-yl)furo[3,2-c]pyridin-4(5H)-one]
≤ 100 | COc1ccc(-c2cn(C)c(=O)c3cc(CN4CCN(S(C)(=O)=O)CC4)oc23)cc1OC [Example 1, 7-[3,4-bis(methyloxy)phenyl]-5-methyl-2-{[4-(methylsulfonyl)-1-piperazinyl]methyl}furo[3,2-c]pyridin-4(5H)-one]
≤ 100 | CC(=O)Nc1cc(-c2cn(C)c(=O)c3cc(CN4CCN(S(C)(=O)=O)C[C@H]4C)oc23)ccn1 [Example 2, (R)—N-(4-(5-methyl-2-((2-methyl-4-(methylsulfonyl)piperazin-1-yl)methyl)-4-oxo-4,5-dihydrofuro[3,2-c]pyridin-7-yl)pyridin-2-yl)acetamide]
≤ 100 | Cn1cc(-c2cccc(OCc3ccccc3)c2)c2oc(CN3CCN(S(C)(=O)=O)CC3)cc2c1=O [Example 3, 7-(3-(benzyloxy)phenyl)-5-methyl-2-((4-(methylsulfonyl)piperazin-1-yl)methyl)furo[3,2-c]pyridin-4(5H)-one]
≤ 100 | Cn1cc(-c2cccc(NCc3ccccc3)c2)c2oc(CN3CCN(S(C)(=O)=O)CC3)cc2c1=O [Example 4, 7-(3-(benzylamino)phenyl)-5-methyl-2-((4-(methylsulfonyl)piperazin-1-yl)methyl)furo[3,2-c]pyridin-4(5H)-one]
≤ 100 | Cn1cc(-c2ccnc(OCC3CCOCC3)c2)c2oc(CN3CCN(S(C)(=O)=O)CC3)cc2c1=O [Example 7, 5-methyl-2-((4-(methylsulfonyl)piperazin-1-yl)methyl)-7-(2-((tetrahydro-2H-pyran-4-yl)methoxy)pyridin-4-yl)furo[3,2-c]pyridin-4(5H)-one]
≤ 100 | COc1ccc(-c2cn(C)c(=O)c3cc(CN4CCN(S(C)(=O)=O)C[C@H]4C)oc23)cc1OC [Example 10, (R)-7-(3,4-dimethoxyphenyl)-5-methyl-2-((2-methyl-4-(methylsulfonyl)piperazin-1-yl)methyl)furo[3,2-c]pyridin-4(5H)-one]
≤ 100 | CC(Oc1cncc(-c2cn(C)c(=O)c3cc(CN4CCN(S(C)(=O)=O)CC4)oc23)c1)c1ccccc1 (stereo not shown) [Example 12, 5-methyl-2-((4-(methylsulfonyl)piperazin-1-yl)methyl)-7-(5-(1-phenylethoxy)pyridin-3-yl)furo[3,2-c]pyridin-4(5H)-one]
≤ 100 | CC(Nc1cc(-c2cn(C)c(=O)c3cc(CN4CCN(S(C)(=O)=O)CC4)oc23)ccn1)c1ccccc1 (stereo not shown) [Example 14, 5-methyl-2-((4-(methylsulfonyl)piperazin-1-yl)methyl)-7-(2-((1-phenylethyl)amino)pyridin-4-yl)furo[3,2-c]pyridin-4(5H)-one]
≤ 100 | CC(Nc1cccc(-c2cn(C)c(=O)c3cc(CN4CCN(S(C)(=O)=O)CC4)oc23)c1)c1ccccc1 (stereo not shown) [Example 15, 5-methyl-2-((4-(methylsulfonyl)piperazin-1-yl)methyl)-7-(3-((1-phenylethyl)amino)phenyl)furo[3,2-c]pyridin-4(5H)-one]
≤ 100 | CC(c1cc2c(=O)n(C)cc(-c3ccnc(OCC4CCOCC4)c3)c2o1)N1CCN(S(C)(=O)=O)CC1 (stereo not shown) [Example 21, 5-methyl-2-(1-(4-(methylsulfonyl)piperazin-1-yl)ethyl)-7-(2-((tetrahydro-2H-pyran-4-yl)methoxy)pyridin-4-yl)furo[3,2-c]pyridin-4(5H)-one formate]
≤ 100 | C[C@@H]1CN(S(C)(=O)=O)CCN1Cc1cc2c(=O)n(C)cc(-c3ccnc(OCC4CC4)c3)c2o1 [Example 23, (R)-7-(2-(cyclopropylmethoxy)pyridin-4-yl)-5-methyl-2-((2-methyl-4-(methylsulfonyl)piperazin-1-yl)methyl)furo[3,2-c]pyridin-4(5H)-one]
≤ 100 | C[C@@H]1CN(S(C)(=O)=O)CCN1Cc1cc2c(=O)n(C)cc(-c3ccnc(NC(=O)C4CC4)c3)c2o1 [Example 24, (R)—N-(4-(5-methyl-2-((2-methyl-4-(methylsulfonyl)piperazin-1-yl)methyl)-4-oxo-4,5-dihydrofuro[3,2-c]pyridin-7-yl)pyridin-2-yl)cyclopropanecarboxamide]
≤ 100 | CCC(=O)Nc1cc(-c2cn(C)c(=O)c3cc(CN4CCN(S(C)(=O)=O)C[C@H]4C)oc23)ccn1 [Example 25, (R)—N-(4-(5-methyl-2-((2-methyl-4-(methylsulfonyl)piperazin-1-yl)methyl)-4-oxo-4,5-dihydrofuro[3,2-c]pyridin-7-yl)pyridin-2-yl)propionamide]
≤ 100 | COCCOc1cc(-c2cn(C)c(=O)c3cc(CN4CCN(S(C)(=O)=O)C[C@H]4C)oc23)ccn1 [Example 26, (R)-7-(2-(2-methoxyethoxy)pyridin-4-yl)-5-methyl-2-((2-methyl-4-(methylsulfonyl)piperazin-1-yl)methyl)furo[3,2-c]pyridin-4(5H)-one]
≤ 100 | C[C@@H]1CN(S(C)(=O)=O)CCN1Cc1cc2c(=O)n(C)cc(-c3ccnc(OCCN4CCCC4)c3)c2o1 [Example 27, (R)-5-methyl-2-((2-methyl-4-(methylsulfonyl)piperazin-1-yl)methyl)-7-(2-(2-(pyrrolidin-1-yl)ethoxy)pyridin-4-yl)furo[3,2-c]pyridin-4(5H)-one]
≤ 100 | CC(=O)N(C)c1cc(-c2cn(C)c(=O)c3cc(CN4CCN(S(C)(=O)=O)C[C@H]4C)oc23)ccn1 [Example 30, (R)—N-methyl-N-(4-(5-methyl-2-((2-methyl-4-(methylsulfonyl)piperazin-1-yl)methyl)-4-oxo-4,5-dihydrofuro[3,2-c]pyridin-7-yl)pyridin-2-yl)acetamide]
≤ 100 | Cn1cc(-c2ccncc2OCC2CC2)c2oc(CN3CCN(S(C)(=O)=O)CC3)cc2c1=O [Example 31, 7-(3-(cyclopropylmethoxy)pyridin-4-yl)-5-methyl-2-((4-(methylsulfonyl)piperazin-1-yl)methyl)furo[3,2-c]pyridin-4(5H)-one]
≤ 10 | C[C@@H]1CN(S(C)(=O)=O)CCN1Cc1cc2c(=O)n(C)cc(-c3ccncc3OCC3CC3)c2o1 [Example 32, (R)-7-(3-(cyclopropylmethoxy)pyridin-4-yl)-5-methyl-2-((2-methyl-4-(methylsulfonyl)piperazin-1-yl)methyl)furo[3,2-c]pyridin-4(5H)-one]
≤ 100 | Cn1cc(-c2ccnc(NCc3ccccn3)c2)c2oc(CN3CCCNCC3)cc2c1=O [Example 34, 2-((1,4-diazepan-1-yl)methyl)-5-methyl-7-(2-((pyridin-2-ylmethyl)amino)pyridine-4-yl)furo[3,2-c]pyridin-4(5H)-one hydrochloride]
≤ 10 | C[C@@H]1CN(S(C)(=O)=O)CCN1Cc1cc2c(=O)n(C)cc(-c3ccnc(OCCN4CCCC4=O)c3)c2o1 [Example 35, (R)-5-methyl-2-((2-methyl-4-(methylsulfonyl)piperazin-1-yl)methyl)-7-(2-(2-(2-oxopyrrolidin-1-yl)ethoxy)pyridin-4-yl)furo[3,2-c]pyridin-4(5H)-one]
≤ 100 | CC(=O)Nc1cc(-c2cn(C)c(=O)c3cc(C(C)N4CCN(S(C)(=O)=O)CC4)oc23)ccn1 (stereo not shown) [Example 36, N-(4-(5-methyl-2-(1-(4-(methylsulfonyl)piperazin-1-yl)ethyl)-4-oxo-4,5-dihydrofuro[3,2-c]pyridin-7-yl)pyridin-2-yl)acetamide, formic acid salt]
